≈ marks a conversion by molar mass, not a printed value.
What was measured:
Format in all cases: functional
Bacteroides fragilis [1] = assay: Antibacterial activity against Bacteroides fragilis assessed as percent susceptible isolates by CLSI M11-A7 method
Prevotella sp. [2] = assay: Antibacterial activity against Prevotella sp. assessed as percent susceptible isolates by CLSI M11-A7 method
Peptostreptococcus sp. [3] = assay: Antibacterial activity against Peptostreptococcus sp. assessed as percent susceptible isolates by CLSI M11-A7 method
Fusobacterium sp. [4] = assay: Antibacterial activity against Fusobacterium sp. assessed as percent susceptible isolates by CLSI M11-A7 method
Bacteroides fragilis [5] = assay: Antibacterial activity against Bacteroides fragilis by CLSI M11-A7 method
Cutibacterium acnes [6] = assay: Antibacterial activity against Propionibacterium acnes by CLSI M11-A7 method
Fusobacterium sp. [7] = assay: Antibacterial activity against Fusobacterium sp. by CLSI M11-A7 method
Clostridium perfringens = assay: Antibacterial activity against Clostridium perfringens by CLSI M11-A7 method
Prevotella sp. [8] = assay: Antibacterial activity against Prevotella sp. by CLSI M11-A7 method
Peptostreptococcus sp. [9] = assay: Antibacterial activity against Peptostreptococcus sp. by CLSI M11-A7 method
Cutibacterium acnes [10] = assay: Antibacterial activity against Propionibacterium acnes assessed as percent susceptible isolates by CLSI M11-A7 method
[11] = test system: Stenotrophomonas maltophilia; assay: Antibacterial activity against non-levofloxacin susceptible Stenotrophomonas maltophilia by CLSI M7-A7 method
Proteus mirabilis [12] = assay: Antibacterial activity against Proteus mirabilis assessed as percent susceptible isolates by CLSI M7-A7 method
Acinetobacter lwoffii [13] = assay: Antibacterial activity against Acinetobacter lwoffii assessed as percent susceptible isolates by CLSI M7-A7 method
[14] = test system: Acinetobacter calcoaceticus; assay: Antibacterial activity against Acinetobacter calcoaceticus assessed as percent susceptible isolates by CLSI M7-A7 method
[15] = test system: Acinetobacter calcoaceticus; assay: Antibacterial activity against Acinetobacter calcoaceticus by CLSI M7-A7 method
Proteus mirabilis [16] = assay: Antibacterial activity against Proteus mirabilis by CLSI M7-A7 method
Pseudomonas aeruginosa [17] = assay: Antibacterial activity against ciprofloxacin-susceptible Pseudomonas aeruginosa assessed as percent susceptible isolates by CLSI M7-A7 method
Acinetobacter baumannii [18] = assay: Antibacterial activity against Acinetobacter baumannii assessed as percent susceptible isolates by CLSI M7-A7 method
Serratia marcescens [19] = assay: Antibacterial activity against Serratia marcescens by CLSI M7-A7 method
Citrobacter freundii [20] = assay: Antibacterial activity against Citrobacter freundii assessed as percent susceptible isolates by CLSI M7-A7 method
Acinetobacter baumannii [21] = assay: Antibacterial activity against Acinetobacter baumannii by CLSI M7-A7 method
Serratia marcescens [22] = assay: Antibacterial activity against levofloxacin susceptible Serratia marcescens assessed as percent susceptible isolates by CLSI M7-A7 method
[23] = test system: Stenotrophomonas maltophilia; assay: Antibacterial activity against non-levofloxacin susceptible Stenotrophomonas maltophilia assessed as percent susceptible isolates by CLSI M7-A7 method
Enterobacter cloacae [24] = assay: Antibacterial activity against Enterobacter cloacae by CLSI M7-A7 method
Proteus vulgaris [25] = assay: Antibacterial activity against Proteus vulgaris by CLSI M7-A7 method
[26] = test system: Stenotrophomonas maltophilia; assay: Antibacterial activity against levofloxacin-susceptible Stenotrophomonas maltophilia by CLSI M7-A7 method
[27] = test system: Stenotrophomonas maltophilia; assay: Antibacterial activity against levofloxacin-susceptible Stenotrophomonas maltophilia assessed as assessed as percent susceptible isolates by CLSI M7-A7 method
Klebsiella aerogenes [28] = assay: Antibacterial activity against Enterobacter aerogenes assessed as percent susceptible isolates by CLSI M7-A7 method
Enterobacter cloacae [29] = assay: Antibacterial activity against Enterobacter cloacae assessed as percent susceptible isolates by CLSI M7-A7 method
Klebsiella aerogenes [30] = assay: Antibacterial activity against Enterobacter aerogenes by CLSI M7-A7 method
Citrobacter freundii [31] = assay: Antibacterial activity against Citrobacter freundii by CLSI M7-A7 method
Pseudomonas aeruginosa [32] = assay: Antibacterial activity against ciprofloxacin-susceptible Pseudomonas aeruginosa by CLSI M7-A7 method
Klebsiella pneumoniae [33] = assay: Antibacterial activity against Klebsiella pneumoniae by CLSI M7-A7 method
Acinetobacter lwoffii [34] = assay: Antibacterial activity against Acinetobacter lwoffii by CLSI M7-A7 method
Pseudomonas aeruginosa [35] = assay: Antibacterial activity against non-ciprofloxacin-susceptible Pseudomonas aeruginosa assessed as percent susceptible isolates by CLSI M7-A7 method
Proteus vulgaris [36] = assay: Antibacterial activity against Proteus vulgaris assessed as percent susceptible isolates by CLSI M7-A7 method
Klebsiella pneumoniae [37] = assay: Antibacterial activity against Klebsiella pneumoniae assessed as percent susceptible isolates by CLSI M7-A7 method
Pseudomonas aeruginosa [38] = assay: Antibacterial activity against non-ciprofloxacin-susceptible Pseudomonas aeruginosa by CLSI M7-A7 method

Question: How did the Activity (Bacteroides fragilis [1]) turn out when `CCC[C@@H]1C[C@@H](C(=O)N[C@@H]([C@H]2O[C@H](SC)[C@H](O)[C@@H](O)[C@H]2O)[C@H](C)Cl)N(C)C1` [CLINDAMYCIN] was run?
Answer: 65%

Question: What about the Activity (Prevotella sp. [2]) of the same compound?
Answer: 85%

Question: What about the Activity (Peptostreptococcus sp. [3]) of the same compound?
Answer: 88.5%

Question: What about the Activity (Fusobacterium sp. [4]) of the same compound?
Answer: 95.2%

Question: And the MIC50 (Bacteroides fragilis [5])?
Answer: 2 µg/mL (≈ 4.71 µM)

Question: And the MIC90 (Bacteroides fragilis [5])?
Answer: > 8 µg/mL

Question: And the MIC50 (Cutibacterium acnes [6])?
Answer: 0.06 µg/mL (≈ 0.141 µM)

Question: What about the MIC90 (Cutibacterium acnes [6]) of the same compound?
Answer: 0.12 µg/mL (≈ 0.282 µM)

Question: What about the MIC (Fusobacterium sp. [7]) of the same compound?
Answer: 0.06 µg/mL (≈ 0.141 µM)

Question: And the MIC50 (Fusobacterium sp. [7])?
Answer: 0.06 µg/mL (≈ 0.141 µM)

Question: What about the MIC90 (Fusobacterium sp. [7]) of the same compound?
Answer: 2 µg/mL (≈ 4.71 µM)

Question: And the MIC50 (Clostridium perfringens)?
Answer: 2 µg/mL (≈ 4.71 µM)

Question: And the MIC90 (Clostridium perfringens)?
Answer: 4 µg/mL (≈ 9.41 µM)

Question: And the MIC (Prevotella sp. [8])?
Answer: ≤ 0.03 µg/mL

Question: And the MIC50 (Prevotella sp. [8])?
Answer: ≤ 0.03 µg/mL

Question: And the MIC90 (Prevotella sp. [8])?
Answer: > 8 µg/mL

Question: And the MIC50 (Peptostreptococcus sp. [9])?
Answer: 0.25 µg/mL (≈ 0.588 µM)

Question: What about the MIC90 (Peptostreptococcus sp. [9]) of the same compound?
Answer: > 8 µg/mL

Question: And the Activity (Cutibacterium acnes [10])?
Answer: 100%

Question: Which MIC [11] does the source give for `C[C@@H](O)[C@H]1C(=O)N2C(C(=O)O)=C(SCCNC=N)C[C@H]12` [IMIPENEM ANHYDROUS] here?
Answer: 1 µg/mL (≈ 3.34 µM)

Question: What about the Activity (Proteus mirabilis [12]) of the same compound?
Answer: 92%

Question: What about the Activity (Acinetobacter lwoffii [13]) of the same compound?
Answer: 86%

Question: What about the Activity [14] of the same compound?
Answer: 77.8%

Question: What about the MIC50 [15] of the same compound?
Answer: 1 µg/mL (≈ 3.34 µM)

Question: What about the MIC90 [15] of the same compound?
Answer: > 64 µg/mL

Question: What about the MIC50 (Proteus mirabilis [16]) of the same compound?
Answer: 1 µg/mL (≈ 3.34 µM)

Question: What about the MIC90 (Proteus mirabilis [16]) of the same compound?
Answer: 2 µg/mL (≈ 6.68 µM)

Question: And the Activity (Pseudomonas aeruginosa [17])?
Answer: 97.1%

Question: And the Activity (Acinetobacter baumannii [18])?
Answer: 54.7%

Question: And the MIC50 (Serratia marcescens [19])?
Answer: 2 µg/mL (≈ 6.68 µM)

Question: What about the MIC90 (Serratia marcescens [19]) of the same compound?
Answer: 4 µg/mL (≈ 13.4 µM)

Question: What about the Activity (Citrobacter freundii [20]) of the same compound?
Answer: 87%

Question: And the MIC50 (Acinetobacter baumannii [21])?
Answer: 2 µg/mL (≈ 6.68 µM)

Question: And the MIC90 (Acinetobacter baumannii [21])?
Answer: > 8 µg/mL

Question: And the Activity (Serratia marcescens [22])?
Answer: 91%

Question: And the Activity [23]?
Answer: 22.9%

Question: What about the MIC50 (Enterobacter cloacae [24]) of the same compound?
Answer: 0.5 µg/mL (≈ 1.67 µM)

Question: What about the MIC90 (Enterobacter cloacae [24]) of the same compound?
Answer: 8 µg/mL (≈ 26.7 µM)

Question: And the MIC50 (Proteus vulgaris [25])?
Answer: 1 µg/mL (≈ 3.34 µM)

Question: What about the MIC90 (Proteus vulgaris [25]) of the same compound?
Answer: 2 µg/mL (≈ 6.68 µM)

Question: What about the MIC [26] of the same compound?
Answer: 0.25 µg/mL (≈ 0.835 µM)

Question: And the Activity [27]?
Answer: 38.5%

Question: And the Activity (Klebsiella aerogenes [28])?
Answer: 88%

Question: And the Activity (Enterobacter cloacae [29])?
Answer: 88%

Question: What about the MIC50 (Klebsiella aerogenes [30]) of the same compound?
Answer: 0.5 µg/mL (≈ 1.67 µM)

Question: And the MIC90 (Klebsiella aerogenes [30])?
Answer: 1 µg/mL (≈ 3.34 µM)

Question: What about the MIC50 (Citrobacter freundii [31]) of the same compound?
Answer: 0.5 µg/mL (≈ 1.67 µM)

Question: And the MIC90 (Citrobacter freundii [31])?
Answer: 8 µg/mL (≈ 26.7 µM)

Question: And the MIC50 (Pseudomonas aeruginosa [32])?
Answer: 0.5 µg/mL (≈ 1.67 µM)

Question: What about the MIC90 (Pseudomonas aeruginosa [32]) of the same compound?
Answer: 1 µg/mL (≈ 3.34 µM)

Question: What about the MIC50 (Klebsiella pneumoniae [33]) of the same compound?
Answer: 0.25 µg/mL (≈ 0.835 µM)

Question: And the MIC90 (Klebsiella pneumoniae [33])?
Answer: 0.5 µg/mL (≈ 1.67 µM)

Question: And the MIC50 (Acinetobacter lwoffii [34])?
Answer: 0.25 µg/mL (≈ 0.835 µM)

Question: What about the MIC90 (Acinetobacter lwoffii [34]) of the same compound?
Answer: 8 µg/mL (≈ 26.7 µM)

Question: What about the Activity (Pseudomonas aeruginosa [35]) of the same compound?
Answer: 64.6%

Question: What about the Activity (Proteus vulgaris [36]) of the same compound?
Answer: 98%

Question: And the Activity (Klebsiella pneumoniae [37])?
Answer: 93%

Question: What about the MIC50 (Pseudomonas aeruginosa [38]) of the same compound?
Answer: 1 µg/mL (≈ 3.34 µM)

Question: And the MIC90 (Pseudomonas aeruginosa [38])?
Answer: > 64 µg/mL

Source: ChEMBL document CHEMBL1649565, “Besifloxacin, a novel fluoroquinolone, has broad-spectrum in vitro activity against aerobic and anaerobic bacteria” (Antimicrob Agents Chemother, 2009)
